“And” between values parts separate entries of the source, which are not always exact repeats. Equal entries are not always repeated.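 1) Cells in 96-well plates. 2) Compound, 48 h, 5 concentrations. 3) Linear interpolation between surrounding doses. 4) Unreached endpoint = highest concentration. Abbreviation: GI50, concentration required for 50% inhibition of growth. TGI is the concentration that stops growth completely.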
Assays:
Assay in all cases: DTP human tumour cell line panel, 48 h
[1] = test system: 786-0 renal
[2] = test system: A498 renal
[3] = test system: A549 NSCLC
[4] = test system: ACHN renal
[5] = test system: BT-549 breast
[6] = test system: CAKI-1 renal
[7] = test system: CCRF-CEM leukemia
[8] = test system: COLO 205 colon
[9] = test system: DU-145 prostate
[10] = test system: EKVX NSCLC
[11] = test system: HCC-2998 colon
[12] = test system: HCT-116 colon
[13] = test system: HCT-15 colon
[14] = test system: HL-60(TB) leukemia
[15] = test system: HOP-62 NSCLC
[16] = test system: HOP-92 NSCLC
[17] = test system: HS 578T breast
[18] = test system: HT29 colon
[19] = test system: IGROV1 ovarian
[20] = test system: K-562 leukemia
[21] = test system: KM12 colon
[22] = test system: LOX IMVI melanoma
[23] = test system: M14 melanoma
[24] = test system: MALME-3M melanoma
[25] = test system: MCF7 breast
[26] = test system: MDA-MB-231 breast
[27] = test system: MDA-MB-435
[28] = test system: MOLT-4 leukemia
[29] = test system: NCI-H226 lung
[30] = test system: NCI-H23 lung
[31] = test system: NCI-H460 lung
[32] = test system: NCI-H522 lung
[33] = test system: NCI/ADR-RES ovarian
[34] = test system: OVCAR-3 ovarian
[35] = test system: OVCAR-4 ovarian
[36] = test system: OVCAR-5 ovarian
[37] = test system: OVCAR-8 ovarian
[38] = test system: PC-3 prostate
[39] = test system: RPMI-8226 leukemia
[40] = test system: RXF 393 renal
[41] = test system: SF-268 CNS
[42] = test system: SF-295 CNS
[43] = test system: SF-539 CNS
[44] = test system: SK-MEL-2 melanoma
[45] = test system: SK-MEL-28 melanoma
[46] = test system: SK-MEL-5 melanoma
[47] = test system: SK-OV-3 ovarian
[48] = test system: SN12C renal
[49] = test system: SNB-19 CNS
[50] = test system: SNB-75 CNS
[51] = test system: SR leukemia
[52] = test system: SW-620 colon
[53] = test system: T-47D breast
[54] = test system: TK-10 renal
[55] = test system: U251 CNS
[56] = test system: UACC-257 melanoma
[57] = test system: UACC-62 melanoma
[58] = test system: UO-31 renal

Structure (SMILES): CCc1cnn2c(NCc3ccc[n+]([O-])c3)cc(N3CCCC[C@H]3CCO)nc12
- GI50 [1]: 10.1 nM and 4.94 nM
- TGI [1]: > 100000 nM
- GI50 [2]: 2.9 nM
- TGI [2]: 9.04 nM
- GI50 [3]: < 16.3 nM and 8.53 nM
- TGI [3]: > 10000 nM
- GI50 [4]: < 15.5 nM and 13.2 nM
- TGI [4]: > 10000 nM
- GI50 [5]: < 10 nM and 3.31 nM
- TGI [5]: < 18.3 nM and 30.5 nM
- GI50 [6]: 49.1 nM and 9.11 nM
- TGI [6]: > 63400 nM
- GI50 [7]: < 10 nM and 3.31 nM
- GI50 [8]: < 10 nM and 2.35 nM
- TGI [8]: < 10 nM and 5.86 nM
- GI50 [9]: < 12.7 nM and 7.28 nM
- TGI [9]: > 10000 nM
- GI50 [10]: < 10 nM and 9.02 nM
- TGI [10]: 138 nM and 52.4 nM
- GI50 [11]: < 10 nM and 4.5 nM
- TGI [11]: 49.2 nM and 34.7 nM
- GI50 [12]: < 10 nM and 3.45 nM
- TGI [12]: > 100000 nM
- GI50 [13]: 35.1 nM and 25.3 nM
- TGI [13]: > 35000 nM
- GI50 [14]: < 10 nM and 3.19 nM
- TGI [14]: < 10 nM and 11.2 nM
- GI50 [15]: < 10 nM and 4.15 nM
- TGI [15]: 35.1 nM
- GI50 [16]: < 14.2 nM and 2.99 nM
- TGI [16]: < 26.9 nM and 14.5 nM
- GI50 [17]: < 10 nM and 2.36 nM
- TGI [17]: 8.05 nM
- GI50 [18]: < 10 nM and 4.41 nM
- GI50 [19]: < 10 nM and 3.3 nM
- TGI [19]: > 10000 nM
- GI50 [20]: 15.5 nM and 4.49 nM
- TGI [20]: > 100000 nM
- GI50 [21]: < 10 nM and 3.4 nM
- TGI [21]: > 10000 nM
- GI50 [22]: < 10 nM and 2.76 nM
- TGI [22]: > 100000 nM
- GI50 [23]: < 10 nM and 4.38 nM
- TGI [23]: 23.5 nM and 35.1 nM
- GI50 [24]: < 12.6 nM and 7.54 nM
- TGI [24]: 27.2 nM and 32.4 nM
- GI50 [25]: < 10 nM and 2.21 nM
- TGI [25]: > 100000 nM
- GI50 [26]: < 10 nM and 4.2 nM
- TGI [26]: > 100000 nM
- GI50 [27]: < 10 nM and 3.31 nM
- GI50 [28]: < 10 nM and 3.93 nM
- TGI [28]: < 13.6 nM
- GI50 [29]: < 12.9 nM and 6.89 nM
- TGI [29]: 39.5 nM
- GI50 [30]: < 10 nM and 4.16 nM
- TGI [30]: 17.4 nM and 21.4 nM
- GI50 [31]: < 10 nM and 4.64 nM
- TGI [31]: > 44800 nM
- GI50 [32]: < 10 nM and 2.19 nM
- TGI [32]: < 10 nM and 5.49 nM
- GI50 [33]: 162 nM and 146 nM
- TGI [33]: 2530 nM and > 6610 nM
- GI50 [34]: 3.27 nM
- TGI [34]: > 10000 nM
- GI50 [35]: < 10.5 nM and 7.98 nM
- GI50 [36]: < 10 nM and 4.92 nM
- TGI [36]: > 35700 nM
- GI50 [37]: < 10 nM and 4.46 nM
- TGI [37]: > 100000 nM
- GI50 [38]: < 13.2 nM and 7.62 nM
- TGI [38]: 79.2 nM and 111 nM
- GI50 [39]: < 10 nM and 6.68 nM
- TGI [39]: 24.4 nM and 43.6 nM
- GI50 [40]: < 10 nM and 1.88 nM
- TGI [40]: < 10 nM and 4.46 nM
- GI50 [41]: < 10 nM and 3.48 nM
- TGI [41]: 57.6 nM and 373 nM
- GI50 [42]: < 12.9 nM and 7.32 nM
- TGI [42]: 96.2 nM and 60.2 nM
- GI50 [43]: < 10 nM and 2.28 nM
- TGI [43]: < 11.6 nM and 7.56 nM
- GI50 [44]: < 10 nM and 3.15 nM
- TGI [44]: 23.7 nM and 10.7 nM
- GI50 [45]: < 10 nM and 4.93 nM
- TGI [45]: 29.7 nM and 71.3 nM
- GI50 [46]: < 10 nM and 4.69 nM
- TGI [46]: 23.7 nM and 207 nM
- GI50 [47]: 39.1 nM and 33.8 nM
- TGI [47]: > 100000 nM
- GI50 [48]: < 10 nM and 4.06 nM
- TGI [48]: > 100000 nM
- GI50 [49]: < 10.7 nM and 3.66 nM
- TGI [49]: > 100000 nM
- GI50 [50]: < 10 nM and 1.74 nM
- TGI [50]: < 14.5 nM and 4.37 nM
- GI50 [51]: < 10 nM and 1.6 nM
- TGI [51]: < 10 nM
- GI50 [52]: < 10 nM and 3.22 nM
- TGI [52]: > 100000 nM
- GI50 [53]: < 10 nM and 4.85 nM
- TGI [53]: 77.7 nM
- GI50 [54]: < 15.6 nM and 9.16 nM
- TGI [54]: 1950 nM and > 2070 nM
- GI50 [55]: < 10 nM and 3.68 nM
- TGI [55]: > 100000 nM
- GI50 [56]: < 13.5 nM and 7.4 nM
- GI50 [57]: < 10 nM and 3.45 nM
- TGI [57]: 30.7 nM and 16.8 nM
- GI50 [58]: 20.1 nM and 22.8 nM
- TGI [58]: 69.2 nM

Source: PubChem BioAssay (NCI)
